# Assay results from patent US20260374809A1, “COMPOUNDS USEFUL FOR THE TREATMENT AND/OR CARE OF THE SKIN, HAIR, NAILS AND/OR MUCOUS MEMBRANES” (Lubrizol Advanced Materials, Inc., priority 2022, published 2026).
# Where a SMILES comes first, the peptide text is derived from it.
# What was measured:
# [1] = test system: Musclebind Like Protein 1 (MBNL1); test: MBNL1 protein expression in human skeletal muscle cells (hSKMC), HTRF; type: cell-based; details: 0.5 mg/ml, 48 hours, relative to basal control
# Experimental: Musclebind Like Protein 1 (MBNL1) in Human Skeletal Muscle Cells (hSKMC)
# An increase of MBNL-1 in muscle cells helps maintaining the tone of facial skin muscles. Thus, compounds able to enhance MBNL-1 can be used as a good approach for cosmetic treatment of sagging facial appearance.
# Human skeletal muscle cells (hSKMC) were cultured at 100,000 cells in T25 flasks with growth medium. After 4 days, cells reached around 80% of confluency and were seeded at 150,000 cells per well in 12-well plates in growth medium. Cells were incubated for 72 hours and then they were changed to differentiation medium and incubated during 48 hours. At the end of this period, cells were treated with defined peptides (0.5 mg/ml) and with medium alone for control conditions during 48 hours in differentiation medium. Cells were also treated with 2 mM of ketoprofen as a positive control.
# After the incubation period, cells were lysed and frozen at −80 °C. For total protein quantification protein extract was measured by Bicinchoninic Acid (BCA) method. MBNL1 protein detection was performed by Homogeneous Time Resolved Fluorescence (HTRF) technology. Normalization of MBNL1 levels were performed by total protein quantification for each condition. Results are expressed as a relative MBNL1 protein level respect to control conditions. At least 3 replicates were carried out per condition.
# [2] = test system: Human dermal fibroblast (HDF); test: Collagen contraction assay with human dermal fibroblasts in collagen gel; type: cell-based; details: 0.01 mg/ml, 24 h post detachment, without MES; basal control = 100.0, MES = 144.4
# Description: It is known that a remarkable change in the mechanical properties of the skin with aging is due to reduced contractile capacity as well as reduced migration activity of fibroblasts. Healthy fibroblasts induce contraction of the collagen network through physical interactions with collagen fibers. The collagen network is essential for maintaining the firmness of the skin. The collagen contraction assay is a well-known experimental approach to measuring the cell-induced contraction of the extracellular matrix. In this assay, the capacity of fibroblasts, embedded in a collagen-based gel, to reduce the gel diameter is evaluated.
# By improving the contractile forces, the mechanical tension can be improved, which can be associated to “lifting” effect at the scale of fibroblasts.
# The microcurrent system was built by coupling gold electrodes (in order to avoid medium oxidation leading to cell death when current goes through) to opposite sides of 60 mm Petri dishes (separated by 4 cm). When a voltage is applied, an electric field generates between opposite positive and negative poles and current passes through the culture. During the stimulation time (2 hours), each of the 60 mm Petri dishes is connected to a voltage source that allows regulating the amount of current that passes through each of them. For these experiments, a […] current (which corresponds to approx. 67 mV/mm) was used.
# Human dermal fibroblast (HDF) cell culture and expansion: Cells were thawed in T75 flasks and the growth medium was changed every 2 days of cell culture. After 7 days, cells were expanded to obtain a total amount of 7×10^6 cells to be used in the experiments.
# Once finished the expansion, cultures are trypsinized and seeded at 3×10^5 cells/60 mm Petri up to a total of 10 dishes per replicate. These ten dishes correspond to one experiment (Control/-MES vs+MES) at a specific concentration. Peptide treatment was performed at 0.01 mg/ml.
# After an overnight (O/N) incubation to allow cell attachment, each Petri dish is treated at the corresponding concentration with 4 ml of specific medium for a total of 24 hours in both conditions (without MES and with MES). Peptide treatment on the dishes that are not stimulated with microcurrent is initiated 2 hours in advance, and their passage into 3D cultures occurs at the same time as the microcurrent stimulation of the other dishes. […]
# Each 3D culture is prepared by mixing collagen solution with the culture medium corresponding to each of the conditions (without peptide or with peptide). […] Images of collagen gel diameter are taken of each well at 24 hours post detachment and analyzed by ImageJ. […]
# [formula] • An initial area is stablished. […] Area t=0 gel […]1.86 cm^2 (Area of a well in a 24-well plate) • Quantification of Area at t=x; Ax. […]
compound,measurement,setting,value
"CC(C)C[C@H](N)C(=O)N1CCC[C@H]1C(=O)N[C@H](C(=O)N[C@H](C(=O)O)[C@@H](C)O)C(C)C [PEP-1, H-Leu-Pro-Val-Thr-OH] (H-LPVT-OH)",% MBNL1 vs Basal control,[1],213.0%
same,"Collagen contraction, MEAN ± SEM",[2],137.5 ± 7.8%
